Tests used:
[1] = system: patients and healthy volunteers; details: over 900 patients and healthy volunteers
Source text: GLA is a fully synthetic TLR4 agonist, which has been examined in over 900 patients and healthy volunteers as an adjuvant with NY-ESO-1 protein and with infectious agent antigens such as in flu vaccines. […] A higher Mug dose cohort is currently being examined in this Phase 1 trial.

[2] = system: HSV; details: continuous suppressive administration, early intervention; cited from earlier work

Row | Compound | safety profile [1] | reduction of HSV transmission [2]
1 | CCCCCCCCCCCCCC(=O)O[C@H](CCCCCCCCCCC)CC(=O)O[C@@H]1[C@@H](NC(=O)C[C@H](CCCCCCCCCCC)OC(=O)CCCCCCCCCCCCC)[C@H](OC[C@H]2O[C@H](O)[C@H](NC(=O)C[C@H](O)CCCCCCCCCCC)[C@@H](OC(=O)C[C@H](O)CCCCCCCCCCC)[C@@H]2O)O[C@H](CO)[C@H]1OP(=O)(O)O [GLA, glucopyranosyl lipid A] | established safety profile | 
2 | CC(C)[C@H](N)C(=O)OCCOCn1cnc2c(=O)[nH]c(N)nc21 [Valacyclovir] |  | less than 50%

Source: patent publication US20170196954A1, “PRIME-BOOST REGIMENS WITH A TLR4 AGONIST ADJUVANT AND A LENTIVIRAL VECTOR” (priority 2014, published 2017)
